Measurements reported in patent US20030190671A1, “Use of metabolic phenotyping in individualized treatment with amonafide” (McGill University, priority 2001, published 2003).
Marks after values point to notes of the source that are not given here.

Columns and labels:
Format in all cases: binding, rabbit
Caffeine-Ab = assay: Competitive antigen ELISA, antibody specificity of caffeine-Ab; details: hypothesized ideal antibody specificity; 0 = no inhibition or no higher than 40% at 5×10^−3 M
Method: (§1) Competitive Antigen ELISA
(§2) BSA, antibodies, Tween™ 20 and horse radish peroxidase are added to buffers and water just prior to use. Urine samples are usually collected four hours after drinking a cup of coffee (instant or brewed with approximately 100 mg of caffeine per cup) and stored at −20° C. as 1-mL aliquots in 1.5-mL microtubes. For the ELISA, the urine samples are diluted with isotonic sodium phosphate buffer, pH 7.5 (310 mosM) to give concentrations of caffeine, 1.7-DMX and 1,7-DMU no higher than 3×10^−6 M in the microtiter plate wells. Wells of the ELISA plate are washed with a Nunc-Immuno wash 12 washer. Sixteen milliliters of a solution of 6.6 μg ml^−1 of isolated IgG antibodies is prepared in a 100 mM sodium carbonate buffer, pH 9.6, and 150 μL of this solution is pipetted in each well of a microtiter plate using a eight channel pipet (Brinkmann Transferpette™-8 50-200 μL) and 200 μL Flex tips from Brinkmann). After coating the wells with antibodies at 4° C. for 20 hours, the wells are washed 3 times with the isotonic sodium phosphate buffer containing 0.05% Tween™ 20 (IPBT) and properly drained by inverting the plate and absorbing the liquid on to a piece of paper towel. Thirty milliliters of a solution of a IPBT solution containing 1% BSA is prepared and 150 μL of this solution is pipetted in each well using a eight channel pipet (Brinkmann Transferpet-te™-8 50-200 μL) and 200 μL yellow tips (Sarstedt yellow tips for P200 Gilson Pipetman). After 3 hours at room temperature, the wells are washed 3 times with IPBT solution and drained. Samples of 400 μL for determination of caffeine, 1,7-DMX and 1,7-DMU are prepared in 1.5-mL microtubes using Sarstedt yellow tips and a P200 Gilson Pipetman. Then, 200 μL of each sample are pipetted in duplicate in a Falcon 96-well microtest tissue culture plate according to the pattern shown in FIG. 23, using Sarstedt yellow tips and a P200 Gilson Pipetman. Using an eight channel pipet (Brinkmann Transferpette™-8 50-200 μL) and changing the tips of the eight channel pipet (200 μL Flex tips from Brinkmann) at each row, 150 μL of samples are transferred in the corresponding wells of a 96-well ELISA microtiter plate coated with antibodies. After the addition of the samples, the microtiter plates are covered and left standing at room temperature for 2 h. While the plate is left standing the substrate buffer without the hydrogen peroxide and o-phenylenediamine hydrochloride is prepared (25 mM citric acid and 50 mM sodium phosphate dibasic buffer, pH 5.0). The microtiter plate is washed 3 times with the IPBT solution and 3 times with a 0.05% Tween 20 solution and drained. Then, 50 […] of hydrogen peroxide and 40 mg of o-phenylenediamine are added to the substrate buffer. One hundred fifty microliters (150 μL) of the substrate buffer solution is then added to each well using a eight channel pipet (Brinkmann Transferpette™-8 50-200 μL) and 200 μL Flex tips (Brinkmann). The microtiter plate is covered and shaken for 25-30 min at room temperature and the enzymatic reaction is stopped by adding 50 μL/well of a 2.5 N HCl solution using an eight channel pipet (Brinkmann Transferpette™-8 50-200 μL) and 200 μL Flex tips (Brinkmann).

1,7-DMX-Ab = assay: Competitive antigen ELISA, antibody specificity of 1,7-DMX-Ab; details: hypothesized ideal antibody specificity; 0 = no inhibition or no higher than 40% at 5×10^−3 M
Method: as §1, §2

1,7-DMU-Ab = assay: Competitive antigen ELISA, antibody specificity of 1,7-DMU-Ab; details: hypothesized ideal antibody specificity; 0 = no inhibition or no higher than 40% at 5×10^−3 M
Method: as §1, §2

AAMU-Ab = assay: Competitive antigen ELISA, cross-reactivity of AAMU-Ab; details: competitive antigen ELISA; 0 = absence of inhibition or inhibition no higher than 40% at the highest concentration tested (5×10^−3 M)
Method: as §1
(§3) Buffers and water without additives are filtered through millipore filters and kept for 1 week. BSA, antibodies, Tween™ 20 and horse radish peroxidase conjugates are added to these buffers and water just prior to use. Urine samples are usually collected 4 hours after drinking a cup of coffee (instant or brewed with approximately 100 mg of caffeine per cup) and stored at −80° C. The urine samples are diluted 10 times with sodium phosphate buffer (620 mosm, pH 7.50) and are subsequently diluted with water to give concentrations of AAMU and 1X no higher than 3×10^−6 M in the ELISA. All the pipettings are done with an eight-channel pipette, except those of the antibody and sample solutions. Starting with the last well, 100 μL of a carbonate buffer (100 mM, pH 9.6) containing 2.5 μg mL-1 antibodies are added to each well. After 90 min. at room temperature, the wells are washed three times with 100 mL of TPB: isotonic sodium phosphate buffer (310 mosm, pH 7.50) containing 0.05% Tween™ 20.
(§4) After the initial wash, unoccupied sites are blocked by incubation for 90 min. at room temperature with 100 μL TBP containing 3% BSA. The wells are washed four times with 100 […] TPB. […] The microplate is gently shaken with an orbital shaker at room temperature for 3-4 hours. The wells are washed three times with 100 μL TPB containing 1% BSA and three times with water containing 0.05% Tween™ 20. To the washed plate is added 150 μL of a substrate buffer composed of citric acid (25 mM) and sodium phosphate dibasic buffer (50 mM, pH 5.0) containing 0.06% hydrogen peroxide and 0.04% o-phenylenediamine hydrochloride.
as §3, with “were” for “are”, “They were” for “The urine samples are”, “mL^−1” for “mL-1”, “was pipetted.” for “are added to each well.”, “μL” for “mL”
(§5) After the initial wash, unoccupied sites were blocked by incubation for 90 min. at room temperature with 100 μL TBP containing 3% BSA. The wells were washed four times with 100 μL TPB. […] The microplate was gently shaken with an orbital shaker at room temperature for 3-4 hours. The wells were washed three times with 100 μL with TPB containing 1% BSA and three times with water containing 0.05% Tween™ 20. To the washed plate was added 150 μL of a substrate buffer composed of citric acid (25 mM) and sodium phosphate dibasic buffer (50 mM, pH 5.0) containing 0.06% hydrogen peroxide and 0.04% o-phenylenediamine hydrochloride. After 20 min. at room temperature with shaking, the reaction was stopped with 50 μL of 2.5 N HCl.
(§6) The cross reactivities of AAMU-Ab and 1X-Ab were tested using a wide variety of caffeine metabolites and structural analogs (Table 2 below).

1X-Ab = assay: Competitive antigen ELISA, cross-reactivity of 1X-Ab; details: competitive antigen ELISA; 0 = absence of inhibition or inhibition no higher than 40% at the highest concentration tested (5×10^−3 M)
Method: as §1, §3, §4
as §3, with “were” for “are”, “They were” for “The urine samples are”, “mL^−1” for “mL-1”, “was pipetted.” for “are added to each well.”, “μL” for “mL”
as §5, §6

Compound	% Cross-reaction Caffeine-Ab (Caffeine-Ab)	% Cross-reaction 1,7-DMX-Ab (1,7-DMX-Ab)	% Cross-reaction 1,7-DMU-Ab (1,7-DMU-Ab)	% Cross-Reaction AAMU-Ab (AAMU-Ab)	% Cross-Reaction 1X-Ab (1X-Ab)
Cn1c(=O)c2c([nH]c(=O)n2C)n(C)c1=O [1,3,7-Trimethyluric acid]	0%	0%	0%	–	–
Cn1c(=O)[nH]c(=O)c2c1[nH]c(=O)n2C [3,7-Dimethyluric acid]	0%	0%	0%	–	–
Cn1c(=O)[nH]c2[nH]c(=O)[nH]c2c1=O [1-Methyluric acid, 1-methyluric acid]	0%	0%	0%	0%	11%
Nc1nc2nc[nH]c2c(=O)[nH]1 [Guanine]	0%	0%	0%	0%	0%
CC(=O)Nc1c(N)n(C)c(=O)n(C)c1=O [5-Acetamino-6-amino-1,3-dimethyluracil]	0%	0%	0%	0%	0%
Cn1c(=O)[nH]c2[nH]c(=O)[nH]c(=O)c21 [7-Methyluric acid]	0%	0%	0%	–	–
Cn1c(=O)[nH]c2[nH]c(=O)n(C)c2c1=O [1,7-Dimethyluric acid, 1,7-dimethyluric acid]	0%	0%	100%	0%	0%
Cn1cnc2c1c(=O)[nH]c(=O)n2C [3,7-Dimethyl Xanthine (Theobromine), 3,7-Dimethyl Xanthine]	0%	0%	0%	0%	0%
Cn1c(=O)c2c(ncn2C)n(C)c1=O [1,3,7-Trimethyl Xanthine (Caffeine), 1,3,7-trimethylxanthine]	100%	0^a %	0%	0%	0%
CC(=O)Nc1c(N)[nH]c(=O)[nH]c1=O [5-Acetamino-6-amino-uracil]	0%	0%	0%	0.6%	0%
Cn1c(=O)[nH]c(=O)c2[nH]cnc21 [3-Methyl Xanthine]	0%	0%	0%	0%	0%
Cc1nc2[nH]c(=O)[nH]c(=O)c2[nH]1 [8-Methyl Xanthine]	0%	0%	0%	0%	0%
Cn1c(=O)c2[nH]c(=O)[nH]c2n(C)c1=O [1,3-Dimethyluric acid]	0%	0%	0%	–	–
O=c1cc[nH]c(=O)[nH]1 [Uracil]	0%	0%	0%	0%	0%
O=c1[nH]c(=O)c2[nH]c(=O)[nH]c2[nH]1 [Uric acid]	0%	0%	0%	0%	0%
Cn1c(=O)[nH]c(=O)c2[nH]c(=O)[nH]c21 [3-Methyluric acid]	0%	0%	0%	–	–
